The results in this text go back to patent publication US6602900B2, “Cyclopentane heptan(ENE)oic acid, 2-heteroarylalkenyl derivatives as therapeutic agents” (Allergan, Inc., priority 1992, dated 2003).

For experiment [1], the system named is PGF2α-sensitive receptor provisionally termed FPVASC. Description: Relaxation of smooth muscle of isolated rabbit jugular vein. It counts as cell-based. Here is the method: (§1) Activity at different prostanoid receptors was measured in vitro in isolated smooth muscle preparations. FP-activity was measured as contraction of the isolated feline iris sphincter. EP1-activity was measured as contraction of the longitudinal smooth muscle of the isolated guinea pig ileum. EP3-activity was measured as inhibition of the twitch response induced by electrical field stimulation in the isolated guinea pig was deferens and as contraction of the longitudinal smooth muscle of the isolated chick ileum. Activity was also measured as relaxation of smooth muscle of isolated rabbit jugular vein a preparation which appears to contain a unique PGF2α-sensitive receptor provisionally termed FPVASC. TP-vasoconstrictor activity was measured as contraction of rings of the isolated rat thoracic aorta. Effects on platelets from healthy human donors were measured by incubating platelet-rich plasma with the compounds described herein. Inhibition of aggregation was determined by the ability of the compounds described herein to inhibit platelet aggregation in platelet-rich plasma induced by 20 μM ADP.

Experiment [2] addresses T1, TP receptor (Rattus norvegicus, UniProt P34978).
T1 construct: rings of the isolated rat thoracic aorta; from tissue; host or cells: isolated rat thoracic aorta rings
T1 sequence (P34978 1-341): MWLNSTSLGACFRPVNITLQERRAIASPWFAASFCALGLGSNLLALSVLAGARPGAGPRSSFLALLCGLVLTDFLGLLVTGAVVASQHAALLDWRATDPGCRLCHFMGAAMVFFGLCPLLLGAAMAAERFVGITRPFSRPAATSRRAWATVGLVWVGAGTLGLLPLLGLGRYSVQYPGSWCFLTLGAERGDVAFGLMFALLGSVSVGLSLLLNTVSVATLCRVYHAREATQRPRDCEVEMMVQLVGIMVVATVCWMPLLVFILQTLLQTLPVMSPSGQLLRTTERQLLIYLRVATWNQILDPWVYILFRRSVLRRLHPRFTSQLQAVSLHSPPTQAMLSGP
Description: TP-vasoconstrictor activity: contraction of rings of the isolated rat thoracic aorta. Type of experiment: cell-based. As for the experimental part:
as §1

Setting [3] is: read-out: rbFPv/EP4, Table of compounds 17a-25, unit inferred.
[4] abbreviates: isolated rabbit jugular vein relaxation, read-out: EC50 (nM) FPVASC.
Setting [5] is: Table of compounds 17a-25, unit inferred, read-out: rtTPva.

Each structure is given as a SMILES string. Like-named read-outs stand apart in the source and are kept apart here. Bounds are passed on as bounds.

Regarding `CCS(=O)(=O)NC(=O)CCC/C=C\C[C@@H]1[C@@H](/C=C/[C@@H](O)CCc2ccc(I)s2)[C@H](O)C[C@@H]1O` [Compound 21b, N-Ethylsulfonyl-7-[3α,5α-Dihydroxy-2-(3α-hydroxy-5-(2-(5-iodo)thienyl)-1E-pentenyl)cyclopentyl]-5Z-heptenamide], the EC50 in experiment [1] (setting [3]) was found to be 189 nM. Regarding `O=C(O)CCC/C=C\C[C@@H]1[C@@H](/C=C/[C@H](O)CCc2nccs2)[C@H](O)C[C@@H]1O`, in experiment [1] (setting [4]), the EC50 stood at 28300 nM. Regarding `O=C(O)CCC/C=C\C[C@@H]1[C@@H](CCC(O)CCc2ccoc2)[C@H](O)C[C@@H]1O` (stereo partly drawn), the EC50 in experiment [1] (setting [4]) is above 5880 nM. As for `CCc1ccc(CC[C@H](O)/C=C/[C@@H]2[C@@H](C/C=C\CCCC(=O)O)[C@@H](O)C[C@H]2O)s1`, the EC50 in experiment [1] (setting [4]) is 21 nM; in experiment [2] (isolated rat thoracic aorta contraction, read-out: EC50 (nM) TP) it was above 10000 nM. `O=C(O)CCC/C=C\C[C@@H]1[C@@H](/C=C/[C@H](O)CCc2ccsc2)[C@H](O)C[C@@H]1O`: the EC50 in experiment [1] (setting [4]) was determined as 58 nM.

Turning to `O=C(CCC/C=C\C[C@@H]1[C@@H](/C=C/[C@@H](O)CCc2ccc(Cl)s2)[C@H](O)C[C@@H]1O)NS(=O)(=O)C(F)(F)F` [Compound 20c, N-Trifluoromethylsulfonyl-7-[3α,5α-Dihydroxy-2-(3α-hydroxy-5-(2-(5-chloro)thienyl)-1E-pentenyl)cyclopentyl]-5Z-heptenamide], the results for the EC50 in experiment [1] (setting [3]) and in experiment [2] (setting [5]) were 221 nM and above 10000 nM, respectively. Regarding `O=C(O)CCC/C=C\C[C@@H]1[C@@H](/C=C/[C@@H](O)CCc2sccc2F)[C@H](O)C[C@@H]1O` [Compound 18b], the results for the EC50 in experiment [1] (setting [3]) and in experiment [2] (setting [5]) were 2.9 nM and 3500 nM, respectively. Take `CS(=O)(=O)NC(=O)CCC/C=C\C[C@@H]1[C@@H](/C=C/[C@@H](O)CCc2ccc(Cl)s2)[C@H](O)C[C@@H]1O` [Compound 20a, N-Methylsulfonyl-7-[3α,5α-Dihydroxy-2-(3α-hydroxy-5-(2-(5-chloro)thienyl)-1E-pentenyl)cyclopentyl]-5Z-heptenamide]: the EC50 in experiment [1] (setting [3]) turned out to be 6070 nM. Still for that read-out and setting: next, `CC(C)OC(=O)CCC/C=C\C[C@@H]1[C@@H](/C=C/[C@@H](O)CCc2ccc(C#N)s2)[C@H](O)C[C@@H]1O` [Compound 17c, Isopropyl-7-[3α,5α-Dihydroxy-2-(3α-hydroxy-5-(2-(5-cyano)thienyl)-1-E-pentenyl)cyclopentyl]-5Z-heptenoate]: 6510 nM. As for `CS(=O)(=O)NC(=O)CCC/C=C\C[C@@H]1[C@@H](/C=C/[C@@H](O)CCc2ccc(I)s2)[C@H](O)C[C@@H]1O` [Compound 21a, N-Methylsulfonyl-7-[3α,5α-Dihydroxy-2-(3α-hydroxy-5-(2-(5-iodo)thienyl)-1E-pentenyl)cyclopentyl]-5Z-heptenamide], the EC50 in experiment [1] (setting [3]) was 1820 nM.

For the molecule `O=C(CCC/C=C\C[C@@H]1[C@@H](/C=C/[C@@H](O)CCc2ccc(I)s2)[C@H](O)C[C@@H]1O)NS(=O)(=O)C(F)(F)F` [Compound 21c, N-Trifluoromethylsulfonyl-7-[3α,5α-Dihydroxy-2-(3α-hydroxy-5-(2-(5-iodo)thienyl)-1E-pentenyl)cyclopentyl]-5Z-heptenamide], the EC50 in experiment [1] (setting [3]) worked out at 36 nM. Turning to `N#Cc1ccc(CC[C@H](O)/C=C/[C@@H]2[C@@H](C/C=C\CCCC(=O)O)[C@@H](O)C[C@H]2O)s1` [Compound 17a, 7-[3α,5α-Dihydroxy-2-(3α-hydroxy-5-(2-(5-cyano)thienyl)-1E-pentenyl)cyclopentyl]-5Z-heptenoic acid], the EC50 in experiment [1] (setting [3]) is 112 nM; in experiment [2] (setting [5]) it was around 10000 nM.

In the case of `CCS(=O)(=O)NC(=O)CCC/C=C\C[C@@H]1[C@@H](/C=C/[C@@H](O)CCc2ccc(Cl)s2)[C@H](O)C[C@@H]1O` [Compound 20b, N-Ethylsulfonyl-7-[3α,5α-Dihydroxy-2-(3α-hydroxy-5-(2-(5-chloro)thienyl)-1E-pentenyl)cyclopentyl]-5Z-heptenamide], the EC50 in experiment [1] (setting [3]) amounted to 1040 nM. Turning to `N#Cc1ccc(CC[C@H](O)/C=C/[C@@H]2[C@@H](C/C=C\CCCC(N)=O)[C@@H](O)C[C@H]2O)s1` [Compound 17b, 7-[3α,5α-Dihydroxy-2-(3α-hydroxy-5-(2-(5-cyano)thienyl)-1E-pentenyl)cyclopentyl]-5Z-heptenamide], the EC50 in experiment [1] (setting [3]) was above 256000 nM.
